The record followed here is PMC5598403 (Toxicology Reports, 2014).

This experiment deals with CK2α (protein kinase CK2 catalytic subunit α) (Homo sapiens, UniProt P68400). Put plainly: radiometric [γ-32P]ATP kinase assay with synthetic peptide RRRADDSDDDDD
In kind it is biochemical.

Sequence of CK2α (protein kinase CK2 catalytic subunit α) (P68400 whole entry): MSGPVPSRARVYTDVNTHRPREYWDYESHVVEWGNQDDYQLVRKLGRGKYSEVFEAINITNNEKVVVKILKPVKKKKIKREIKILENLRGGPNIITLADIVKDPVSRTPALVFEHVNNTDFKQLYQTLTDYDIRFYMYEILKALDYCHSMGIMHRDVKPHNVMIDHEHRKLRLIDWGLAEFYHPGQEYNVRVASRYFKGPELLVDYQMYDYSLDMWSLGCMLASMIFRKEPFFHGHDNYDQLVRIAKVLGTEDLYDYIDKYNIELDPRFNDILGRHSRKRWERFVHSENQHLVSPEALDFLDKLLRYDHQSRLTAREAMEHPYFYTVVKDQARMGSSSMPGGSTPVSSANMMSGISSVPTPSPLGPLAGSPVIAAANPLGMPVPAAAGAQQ

Broadly, the IC50 is the concentration needed to halve the response being measured. Low values mean inhibition by little substance, high ones a need for much substance. Compound `Oc1c(Cl)c(Cl)c(Cl)c(Cl)c1Cl` [PCP, pentachlorophenol] gave a half-inhibitory concentration (IC50) of 3.73 µM.
